Data taken from US20150368195A1, “INDOLINE COMPOUNDS FOR TREATMENT AND/OR PREVENTION OF INFLAMMATION DISEASES” (Taipei Medical University, priority 2014, published 2015).
“Also recorded” adds a separate entry of the source.

Columns and labels:
HDAC1 = target: T1, HDAC1 (Homo sapiens, UniProt Q13547); assay: recombinant HDAC isoform inhibition (kit); format: biochemical; conditions: mean ± SEM, three replicates
T1 construct: purchased
From the text: (§1) Using kits that contained different recombinant HDAC isoforms, we evaluated the ability of MPT0G009 to inhibit HDAC-mediated deacetylation of lysine residues on the substrates that were provided.

HDAC2 = target: T2, HDAC2 (Homo sapiens, UniProt Q92769); assay: recombinant HDAC isoform inhibition (kit); format: biochemical; conditions: mean ± SEM, three replicates
T2 construct: purchased
T2 sequence (Q92769 whole entry, species assumed, canonical isoform): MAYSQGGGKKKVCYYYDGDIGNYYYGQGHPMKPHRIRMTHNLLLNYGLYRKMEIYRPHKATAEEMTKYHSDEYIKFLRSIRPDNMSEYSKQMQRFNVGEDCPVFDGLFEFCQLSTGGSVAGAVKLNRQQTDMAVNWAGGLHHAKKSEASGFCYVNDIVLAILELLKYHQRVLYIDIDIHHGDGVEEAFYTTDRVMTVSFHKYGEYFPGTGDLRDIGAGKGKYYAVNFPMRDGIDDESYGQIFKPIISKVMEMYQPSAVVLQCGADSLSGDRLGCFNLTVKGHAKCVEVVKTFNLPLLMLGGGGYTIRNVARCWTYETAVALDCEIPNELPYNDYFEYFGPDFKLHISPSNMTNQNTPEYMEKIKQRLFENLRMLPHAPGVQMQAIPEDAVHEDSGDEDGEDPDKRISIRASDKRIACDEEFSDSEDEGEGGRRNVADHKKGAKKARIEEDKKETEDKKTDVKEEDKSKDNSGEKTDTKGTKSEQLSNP
From the text: as §1

HDAC3 = target: T3, HDAC3 (Homo sapiens, UniProt O15379); assay: recombinant HDAC isoform inhibition (kit); format: biochemical; conditions: mean ± SEM, three replicates
T3 construct: purchased
T3 sequence (O15379 whole entry, species assumed, canonical isoform): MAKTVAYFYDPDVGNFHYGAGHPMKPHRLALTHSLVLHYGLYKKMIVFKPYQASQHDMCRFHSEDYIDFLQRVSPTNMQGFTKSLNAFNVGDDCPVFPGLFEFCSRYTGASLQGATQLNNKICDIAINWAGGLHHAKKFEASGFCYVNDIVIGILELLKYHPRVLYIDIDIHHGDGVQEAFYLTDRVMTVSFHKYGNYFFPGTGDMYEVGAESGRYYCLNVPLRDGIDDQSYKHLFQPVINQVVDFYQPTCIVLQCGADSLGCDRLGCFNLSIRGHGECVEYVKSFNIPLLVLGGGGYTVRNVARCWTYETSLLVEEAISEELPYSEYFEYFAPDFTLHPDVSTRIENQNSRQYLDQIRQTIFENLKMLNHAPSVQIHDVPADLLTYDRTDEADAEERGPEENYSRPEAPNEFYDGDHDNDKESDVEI
T3 sequence (Q9Y618 395-489 partner limits assumed, species assumed): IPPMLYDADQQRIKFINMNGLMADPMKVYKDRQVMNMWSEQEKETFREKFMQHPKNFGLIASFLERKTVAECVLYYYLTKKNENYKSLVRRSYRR
From the text: as §1

HDAC6 = target: T4, HDAC6 (Homo sapiens, UniProt Q9UBN7); assay: recombinant HDAC isoform inhibition (kit); format: biochemical; conditions: mean ± SEM, three replicates
T4 construct: purchased
T4 sequence (Q9UBN7 whole entry, species assumed, canonical isoform): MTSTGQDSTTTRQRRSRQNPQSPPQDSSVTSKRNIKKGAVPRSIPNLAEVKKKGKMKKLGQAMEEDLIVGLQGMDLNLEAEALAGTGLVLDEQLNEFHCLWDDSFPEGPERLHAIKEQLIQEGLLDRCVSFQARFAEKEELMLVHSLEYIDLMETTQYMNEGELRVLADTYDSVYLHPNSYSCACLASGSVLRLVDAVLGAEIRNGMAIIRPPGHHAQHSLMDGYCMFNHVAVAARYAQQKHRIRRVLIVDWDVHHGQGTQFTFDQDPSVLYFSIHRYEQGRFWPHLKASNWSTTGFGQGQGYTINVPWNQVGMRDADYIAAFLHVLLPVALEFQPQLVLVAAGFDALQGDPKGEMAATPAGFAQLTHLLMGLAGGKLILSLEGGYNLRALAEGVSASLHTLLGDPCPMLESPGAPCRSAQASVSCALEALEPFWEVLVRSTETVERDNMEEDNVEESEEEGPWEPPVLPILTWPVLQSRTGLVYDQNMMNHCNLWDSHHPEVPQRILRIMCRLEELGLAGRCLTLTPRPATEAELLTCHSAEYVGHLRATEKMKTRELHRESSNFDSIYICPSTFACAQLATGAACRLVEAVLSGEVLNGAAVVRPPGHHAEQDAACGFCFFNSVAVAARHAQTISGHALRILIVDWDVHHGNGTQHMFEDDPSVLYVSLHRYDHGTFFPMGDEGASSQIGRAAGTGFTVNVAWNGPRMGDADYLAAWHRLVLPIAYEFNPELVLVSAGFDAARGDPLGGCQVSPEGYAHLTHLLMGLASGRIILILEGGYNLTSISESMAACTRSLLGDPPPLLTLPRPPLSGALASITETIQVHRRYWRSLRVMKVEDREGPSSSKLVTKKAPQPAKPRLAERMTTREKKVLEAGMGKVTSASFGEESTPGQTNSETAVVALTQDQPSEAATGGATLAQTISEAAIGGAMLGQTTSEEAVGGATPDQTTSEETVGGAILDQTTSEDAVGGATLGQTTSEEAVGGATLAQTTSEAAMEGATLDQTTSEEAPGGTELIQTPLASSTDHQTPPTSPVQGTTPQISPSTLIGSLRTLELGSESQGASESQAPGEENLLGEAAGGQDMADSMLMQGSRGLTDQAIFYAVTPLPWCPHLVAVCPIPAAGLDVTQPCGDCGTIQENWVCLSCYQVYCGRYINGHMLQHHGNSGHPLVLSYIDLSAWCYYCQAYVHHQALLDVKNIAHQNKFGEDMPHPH
From the text: as §1

HDAC8 = target: T5, HDAC8 (Homo sapiens, UniProt Q9BY41); assay: recombinant HDAC isoform inhibition (kit); format: biochemical; conditions: mean ± SEM, three replicates, read-out: IC50 DHAC8
T5 construct: purchased
T5 sequence (Q9BY41 whole entry, canonical isoform): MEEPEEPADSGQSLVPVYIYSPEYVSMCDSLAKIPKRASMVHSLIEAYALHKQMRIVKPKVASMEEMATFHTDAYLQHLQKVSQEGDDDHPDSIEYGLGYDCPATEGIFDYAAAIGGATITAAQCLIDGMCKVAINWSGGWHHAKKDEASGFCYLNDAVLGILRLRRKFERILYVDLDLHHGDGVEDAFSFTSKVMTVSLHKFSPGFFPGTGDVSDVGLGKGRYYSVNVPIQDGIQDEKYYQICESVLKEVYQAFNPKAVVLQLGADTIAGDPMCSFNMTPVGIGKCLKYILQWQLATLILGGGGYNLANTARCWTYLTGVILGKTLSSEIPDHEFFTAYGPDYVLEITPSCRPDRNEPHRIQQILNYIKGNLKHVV
From the text: as §1

nitric oxide (NO) = assay: LPS-induced nitric oxide production in RAW 264.7 macrophages; format: cell-based, Mouse
Description: Nitrite concentration was determined using a dilution of sodium nitrite as a standard.
(§2) Furthermore, the anti-inflammatory effects of MPT0G009 was evaluated. […] These supernatants were then assayed for PGE2, NO, and IL-6.

prostaglandin E2 (PGE2) [1] = assay: LPS-induced PGE2 production in RAW 264.7 macrophages; format: cell-based, Mouse
Description: as §2

prostaglandin E2 (PGE2) [2] = assay: LPS-induced PGE2 production by RA-FLS; format: cell-based; conditions: MPT0G009 0.1, 1, 10 μM; SAHA 0.3, 3, 30 μM; LPS 25 ng/mL 24 h
Description: (§3) (FIG. 1A) Structure of MPT0G009. […] Results in (FIGS. 1B-E) and (FIG. 1G) are means±SEM's for three independent experiments, *p<0.05 and **p<0.01 compared with no added inhibitor.
as §2

IL-6 = assay: IL-1β-induced IL-6 production by RA-FLS; format: cell-based; conditions: MPT0G009 0.1, 1, 10 μM; SAHA 0.3, 3, 30 μM; IL-1β 10 ng/mL 24 h
Description: as §3, §2

RA-FLS = assay: cell cycle distribution by flow cytometry (propidium iodide); format: cell-based; conditions: 24 h
From the text: as §3

p21 = p21 expression by flow cytometry or western blot in RA-FLS; format: cell-based; conditions: 24 h, 1 μM MPT0G009 or 3 μM SAHA
From the text: as §3

[3] = system: inducible nitric oxide synthase (iNOS); assay: LPS-induced iNOS protein expression, Western blot, RAW264.7; format: cell-based, Mouse; conditions: RAW264.7, 0.1-10 μM, LPS 25 ng/mL 24 h
Description: (§4) Then the cells were harvested and whole cell extracts were prepared for Western blot analysis for iNOS and COX-2. The relative protein expressions are presented as mean±SEM for four replicates. *p<0.05 compared to the LPS-treated group.

cyclooxygenase-2 (COX-2) = assay: LPS-induced COX-2 protein expression, Western blot, RAW264.7; format: cell-based, Mouse; conditions: RAW264.7, 0.1-10 μM, LPS 25 ng/mL 24 h
Description: as §4

histone H3 (Acetyl-H3) = assay: histone H3 acetylation, Western blot, HIG-82 synoviocytes; format: cell-based; conditions: 3 μM MPT0G009 or 60 μM SAHA; 6, 12, 24 h; starting at 6 h
NFATc1 = assay: RANKL-induced NFATc1 luciferase reporter in RAW264.7 cells; format: cell-based, Mouse; conditions: 5 nM MPT0G009; RANKL 24 h
Description: Cells were then tartrate resistant acid phosphatase (TRAP) stained, and the numbers of TRAP-positive multinuclear cells were counted. […] Images are at ×100 magnification, and the arrows indicate differentiated osteoclasts. (FIG. 6C) RAW264.7 cells were treated as in (FIG. 6B), then incubated with a fluorescein isothiocyanate (FITC)-conjugated anti-CD51/61 antibody and analyzed by flow cytometry. (FIGS. 6D and 6E) RAW264.7 cells (1×10^5) were transfected with 1 μg of pGL4.32[luc2P/NF-κB-RE/Hygro] (FIG. 6D) or pGL4.30[luc2P/NFAT-RE/Hygro] (FIG. 6E) for 24 h and then incubated for 30 min with or without MPT0G009 (5 nM). Then RANKL (50 ng/mL) was added and incubation was continued for an additional 24 h, after which luciferase activity was determined. Results in (FIGS. 6A, 6D, and 6E) are the means±SEM's for three independent experiments. **p<0.01 compared with the indicated controls.
We also assessed the effect of MTPOG009 on the DNA-binding activity of NF-kB and NFATc1, two pivotal transcriptional factors involved in RANKL-induced pathways for promoting osteoclast differentiation. When RAW264.7 cells that had been transiently transfected with reporter plasmids were treated with 5 nM MPT0G009 for 30 min before and during 24-h stimulation with RANKL, MPT0G009 inhibited RANKL-induced NF-kB (FIG. 6d) and NFATc1 (FIG. 6e) luciferase activity.

[4] = in vivo rat pharmacokinetic profiling; parameters: species or system rats
From the text: The pharmokinetic parameters of MPT0G009 in rats after single-dose intravenous (i.v.) and oral administration are summarized in Table 2. […].

[5] = maximum tolerated dose (MTD); format: in vivo; conditions: for Lethality / Change of body weight Day 7 / Change of body weight Day 14 / Change of body weight Day 21: qd × 7; for Change of body weight Day 7 / Change of body weight Day 14 / Change of body weight Day 21: mean ± SEM
[6] = system: carrageenan-induced hind paw edema; assay: carrageenan-induced hind paw edema
Description: A 0.5% (w/v) suspension of carrageenan in normal saline was administered to male Wistar rats (7-weeks) by intradermal injection into the base of the right hind paw. […] A positive control group was included in which rats were pretreated with 5 mg/kg Indomethacin. […] The results are expressed as the mean±SEM, with n=5. *p<0.05 compared to the control group; #p<0.05 for the comparison of the indicated groups.
Animals were divided into four groups (n=5). 0.5% (w/v) suspension of carrageenan in normal saline was administered to male Wistar rats (7-weeks) by intradermal injection into the base of the right hind paw. […] A positive control group was included in which rats were pretreated with 5 mg/kg Indomethacin. Three hours after carrageenan administration, the thickness and volume of the right hind paw were measured by digital caliper and digital plethysmometer (Diagnostic & Research Instruments CO., Ltd, Taipei, Taiwan), respectively.

interleukin-6 (IL-6) = assay: LPS-induced IL-6 production in RAW 264.7 macrophages; conditions: Mus musculus, RAW264.7, read-out: IC50 IL-6
[7] = system: tumor necrosis factor-α (TNF-α); assay: LPS-induced TNF-α production in RAW 264.7 macrophages; conditions: Mus musculus, RAW264.7, read-out: IC50 TNF-α
[8] = MPT0G009 0.1, 1, 10 μM, SAHA 0.3, 3, 30 μM, LPS 25 ng/mL 24 h
[9] = Mus musculus, RAW264.7, LPS-stimulated RAW 264.7 macrophages, mean ± SEM, three experiments

T1 sequence (Q13547 whole entry, species assumed, canonical isoform): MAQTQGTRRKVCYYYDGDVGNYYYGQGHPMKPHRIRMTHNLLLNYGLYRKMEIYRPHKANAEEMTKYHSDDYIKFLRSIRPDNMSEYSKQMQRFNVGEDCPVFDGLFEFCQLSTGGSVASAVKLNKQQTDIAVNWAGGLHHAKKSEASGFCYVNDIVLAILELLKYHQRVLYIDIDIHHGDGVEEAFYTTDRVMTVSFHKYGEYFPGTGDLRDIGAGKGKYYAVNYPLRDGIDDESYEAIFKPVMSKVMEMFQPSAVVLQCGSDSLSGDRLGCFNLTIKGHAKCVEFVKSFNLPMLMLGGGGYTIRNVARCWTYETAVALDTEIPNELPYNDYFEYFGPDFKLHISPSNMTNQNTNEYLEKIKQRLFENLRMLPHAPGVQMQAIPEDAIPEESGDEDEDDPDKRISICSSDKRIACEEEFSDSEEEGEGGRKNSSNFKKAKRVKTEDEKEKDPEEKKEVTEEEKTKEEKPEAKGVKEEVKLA

SMILES: COc1ccc(S(=O)(=O)N2CCc3cc(C=CC(=O)NO)ccc32)cc1 [Compound 9, 3-[1-(4-methoxybenzenesulfonyl)-2,3-dihydro-1H-indol-5-yl]-N-Hydroxyacrylamide]
- IC50 (HDAC1): 4.62 ± 0.81 nM
- IC50 (HDAC2): 5.16 ± 0.76 nM
- IC50 (HDAC3): 1.91 nM
- IC50 (HDAC6): 8.43 ± 0.72 nM
- IC50 (HDAC8): 22.5 nM
- NO production by RAW264.7 cells (nitric oxide (NO); [8]): inhibited
- IC50 (nitric oxide (NO); [9]): 1070 nM
- PGE2 production by RAW264.7 cells (prostaglandin E2 (PGE2) [1]; [8]): inhibited
- IC50 (prostaglandin E2 (PGE2) [1]; [9]): 520 nM
- PGE2 production by RA-FLS (prostaglandin E2 (PGE2) [2]): inhibited
- IL-6 production by RA-FLS (IL-6): inhibited
- subG1 peak (cellular apoptosis) (RA-FLS; MPT0G009 1-1000 nM, SAHA 3-3000 nM): did not increase the subG1 peak
- G0/G1 phase arrest (RA-FLS; all concentrations of both agents): G0/G1 phase arrest was observed
- expression of p21 (p21): significantly increased
- iNOS protein expression [3]: concentration-dependently inhibitory effects
- iNOS protein expression ([3]; listed as compound 9): significantly inhibited
- COX-2 protein expression (cyclooxygenase-2 (COX-2)): concentration-dependently inhibitory effects
- COX-2 protein expression (cyclooxygenase-2 (COX-2); listed as compound 9): significantly inhibited
- acetylation of histone H3 in HIG-82 synoviocytes (histone H3 (Acetyl-H3)): significant hyperacetylation of histone H3
- RANKL-induced NFATc1 luciferase activity (NFATc1): inhibited
- T1/2 ([4]; rat, in vivo, iv, 2 mg/kg): 6.74 h
- Vd ([4]; rat, in vivo, iv, 2 mg/kg): 25.21 L/kg
- T1/2 ([4]; rat, in vivo, po, 20 mg/kg): 9.53 h
- F ([4]; rats, po 20 mg/kg, MPT0G009): 13.0%
- Lethality ([5]; 250 mg/kg po): 0%
- Change of body weight Day 7 ([5]; 250 mg/kg po): +8.7 ± 0.5%
- Change of body weight Day 14 ([5]; 250 mg/kg po): +17.0 ± 0.4%
- Change of body weight Day 21 ([5]; 250 mg/kg po): +22.6 ± 0.6%
- Lethality ([5]; 500 mg/kg po): 0%
- Change of body weight Day 7 ([5]; 500 mg/kg po): +1.6 ± 0.3%
- Change of body weight Day 14 ([5]; 500 mg/kg po): +16.5 ± 0.6%
- Change of body weight Day 21 ([5]; 500 mg/kg po): +24.0 ± 0.9%
- Lethality ([5]; 1000 mg/kg po): 0%
- Change of body weight Day 7 ([5]; 1000 mg/kg po): +4.4 ± 0.6%
- Change of body weight Day 14 ([5]; 1000 mg/kg po): +12.0 ± 0.7%
- Change of body weight Day 21 ([5]; 1000 mg/kg po): +15.3 ± 0.8%
- adverse effects ([5]; mice, dosage of up to 1000 mg/kg/day, within three weeks): No significant adverse effects
- paw thickness reduced compared to control ([6]; compound 9 25 mg/kg oral, 3 h after carrageenan): 21.3%
- carrageenan-induced hind paw edema ([6]; oral, 1 h before carrageenan, compound 9 25 mg/kg, SAHA 200 mg/kg, Indomethacin 5 mg/kg, measured 3 h after): significantly inhibited; also recorded: suppress
- IC50 (interleukin-6 (IL-6)): 10 nM
- IC50 [7]: 520 nM
